These results are taken from US7601732B2, “Crystalline form of 5(S)-(2-hydroxyethoxy)-20(S)-camptothecin” (Dr. Reddy's Laboratories Limited, priority 2006, dated 2009).

The target in one series is T1, Topoisomerase I (Homo sapiens, UniProt P11387).
T1 construct: purchased Topogen, Inc., Port Orange, Fla
T1 sequence (P11387 1-765): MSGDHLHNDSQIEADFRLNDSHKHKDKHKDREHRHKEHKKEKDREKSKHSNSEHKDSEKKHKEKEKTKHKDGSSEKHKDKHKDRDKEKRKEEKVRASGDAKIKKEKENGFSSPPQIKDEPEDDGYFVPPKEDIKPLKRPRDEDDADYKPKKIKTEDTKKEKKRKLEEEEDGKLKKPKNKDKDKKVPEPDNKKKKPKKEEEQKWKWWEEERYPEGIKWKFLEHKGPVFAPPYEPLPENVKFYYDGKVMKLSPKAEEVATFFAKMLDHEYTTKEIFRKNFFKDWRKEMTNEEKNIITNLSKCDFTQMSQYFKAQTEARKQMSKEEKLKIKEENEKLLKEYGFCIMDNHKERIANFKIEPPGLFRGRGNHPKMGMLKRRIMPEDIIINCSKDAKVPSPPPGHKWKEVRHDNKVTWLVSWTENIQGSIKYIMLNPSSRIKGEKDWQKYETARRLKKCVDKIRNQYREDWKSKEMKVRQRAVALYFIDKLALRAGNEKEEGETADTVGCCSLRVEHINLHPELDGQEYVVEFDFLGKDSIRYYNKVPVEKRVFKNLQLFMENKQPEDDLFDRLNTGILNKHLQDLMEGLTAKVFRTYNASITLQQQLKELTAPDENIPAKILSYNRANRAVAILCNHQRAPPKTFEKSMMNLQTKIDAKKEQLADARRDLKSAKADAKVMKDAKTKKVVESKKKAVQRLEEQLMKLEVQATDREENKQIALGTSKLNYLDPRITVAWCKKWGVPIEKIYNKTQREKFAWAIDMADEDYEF
As to the kind of experiment: Topoisomerase I assay (TopoGEN Topo I Drug Screening Kit). In kind it is biochemical. An excerpt:
Topoisomerase I introduces transient nicks in DNA at specific sites. Detection of these transient DNA nicks requires trapping the enzyme on DNA in a nicked intermediate complex using protein denaturants. The resulting covalent DNA/topo I complexes contain nicked open circular DNA which can be detected by agarose gel electrophoresis (with ethidium bromide). Trapping nicked intermediates is relatively inefficient, however, inhibitors, such as the natural product camptothecin, stabilize the intermediate and lead to an increase in the nicked DNA product. This forms the basis for a mechanistic drug screen designed to allow detection of agents that affect topoisomerase I by stabilizing the cleaved intermediate complex.
The TopoGEN® Topo I Drug Screening Kit (Topogen, Inc., Port Orange, Fla.) is designed to allow the investigator to quickly identify novel inhibitors of topoisomerase I. The kit allows the detection of novel compounds that either stabilize the nicked intermediate or otherwise inhibit catalytic activity of topoisomerase I.
The above reaction mixture is incubated at 37° C. for 30 minutes. The reaction is terminated by adding 2 μl of 10% SDS and the mixture is vortexed rapidly (SDS should be added while at 37° C. as cooling the tubes might reseal the nicked DNA). 10× Dye, about 2.5 μl per tube, is added and equal volumes of a mixture of chloroform and isoamyl alcohol (24:1) is added and centrifuged at 13000 rpm for 10 minutes. Samples are loaded on a 1% agarose gel and electrophoresed for 1 hour at 80 volts. The gel was viewed on UV transilluminator and the densitometric estimation of the bands was calculated.
The density of the DNA bands of both super coiled and relaxed forms of DNA was measured using the densitometer. The band intensity of treated (with single concentration of the test drug) and without the drug (i.e., the Control) were recorded. The percentage of relaxed form DNA compared to the supercoiled DNA was calculated for all the lanes including treated and control.
% inhibition of Topoisomerase activity was calculated as: =(100−(100×(1/% inhibition in Control)×% inhibition in treated))

Series [1] concerns NCI-H460 (human small cell lung carcinoma) xenografts. Briefly: NCI-H460 xenograft study in nude mice. In kind it is in vivo. Conditions: oral, (d×5)2 schedule. As to the method: Percentage tumor growth inhibition was calculated using the formula: Percentage Tumor growth inhibition=100−% T/C.
The other parameter observed was mortality.

A short description of series [2]: in vivo. The settings on record: male, Wistar, rat, po, 5 mg/kg. The arrangement: species or system male Wistar rats. As to the method: 5(S)-CPT (2.5 mg/kg) and 5(RS)-CPT (5 mg/kg, including 2.5 mg/kg of 5(S)-CPT in the mixture) were been administered to male Wistar Rats to evaluate oral pharmacokinetics.
(§1) Male Wistar rats, 6-8 weeks of age and weighing between 205 and 218 g were divided into groups of four rats. The oral pharmacokinetics test was carried out in overnight fasted condition and intravenous pharmacokinetics was carried out in fed condition. The test drugs were administered as a solution by oral gavage or lateral tail vein injection. Sparse blood samples of about 250 microliters were collected from retro-orbital plexus at designated time points into microcentrifuge tubes containing 25 microliters of EDTA. Plasma was separated by centrifuging blood at 12,800 rpm for 2 min and refrigerated until analysis.
(§2) Samples were tested for the presence of the test drug as follows. An aliquot of 100 μl plasma (stored at 8° C.) was precipitated with 400 μl of cold methanol for the estimation of total (lactone+carboxylate). […] Concentrations of the test drug were calculated from the linearity plotted by spiking known concentrations of the test drug in blank rat plasma. The pharmacokinetics of the test drug was calculated using non-compartmental analysis.

Series [3] can be described thus: in vivo. The arrangement: species or system Swiss Albino mice. Conditions: Swiss Albino, mouse, po, 5 mg/kg. On the procedure: 5(S)-CPT (2.5 mg/kg) and 5(RS)-CPT (5 mg/kg, including 2.5 mg/kg of 5(S)-CPT in the mixture) were been administered to Swiss Albino mice to evaluate oral pharmacokinetics.
as §1, with “Swiss Albino mice, 3-6” for “Male Wistar rats, 6-8”, “28-34” for “205 and 218”, “used in the study. Twelve mice were used per study.” for “divided into groups of four rats.”
as §2

The test system of series [4] is Human bone marrow mononuclear cells. Briefly: Human bone marrow assay (CFU-GM colony inhibition). The class given is cell-based. On the procedure:
Methocult™ GF (Cat No: H4534, Poietics, Biowhittakar, USA) medium comprising Methycellulose in Iscove's MDM, Fetal bovine serum, Bovine serum albumin, 2-Mercaptoethanol, L-Glutamine, rhStem cell factor, rhGM-CSF and rhIL-3 was used for the assay. Human bone marrow mononuclear cells (Cat No. 2M-125C, Poietics, Biowhittakar, USA) were mixed with Methocult™ GF and the cell density was adjusted to 3×10^5 cells/ml. From this preparation, 500 μL aliquots were made and 2.5 μL of 20× drug solution or vehicle was added to each aliquot and mixed thoroughly. 100 μL of clonogenic medium was plated into each well and the plates were allowed to gel at 4° C. for 15 minutes. Plates were incubated at 37° C. in a fully humidified atmosphere of 5% CO2 in an incubator for 14 days. CFU-GM colonies were counted under an inverted microscope as aggregates of 50 cells or more. The percentage colony inhibition was calculated using the following formula: 100−[(number of colonies in drug treated wells/Number of colonies in control wells)×100].

In series [5] the test system is Saos-2 cells over expressing functional BCRP#4. In kind it is cell-based, human. As to the method:
(§3) The anticancer effect of 5(S)-CPT & 5(R)-CPT were evaluated versus the diastereoisomeric mixture 5(RS)-CPT on Saos-2 cells over expressing functional BCRP#4 and non-functional BCRP mut#10. The human osteosarcoma cell line, Saos-2, was obtained from ATCC (American Type Culture Collection, Cat#HTB-85, Manassas, Va.) and were maintained in DMEM containing 10% fetal bovine serum, 1% penicillin/streptomycin, and 2 mM glutamine. Saos-2 cells were transfected with either BCRP#4 to over express functional BCRP or BCRP#10 to over express non-functional BCRP transporter. The cells were plated in 96-well plates at a density of 1000 cells per each well in a 0.1 ml of medium and allowed to attach overnight. The next morning the medium was gently aspirated and serial dilutions of the compounds to be tested were added. The cells were incubated at 37° C. in a 5% CO2 incubator. After 6 days of exposure to the test drugs, 10 μl of Alamar blue was added aseptically to each well and the plates were returned to the incubator for 6 hr. The amount of the fluorescent dye produced was measured on a Cytofluor 2300(Millipore, Bedford, Mass.) using an excitation wavelength of 530 nm and emission wavelength of 590 nm. The relative fluorescence units obtained were used to calculate the percentage growth at each concentration in relation to the untreated control values. […]

Series [6] relates to Saos-2 cells over expressing non-functional BCRP mut#10. In kind it is cell-based, human. As to the method: as §3
Series [7] is classed as physicochemical. The settings on record: accelerated stability 40° C.±2° C./75% RH±5% RH for 6 months. As to the method:
The water content of crystalline 5(S)-CPT was measured by Mettler® DL 31 KF apparatus by using Karl Fischer reagent. A weighed quantity of crystalline 5(S)-CPT was transferred into a titration vessel of a Karl Fischer apparatus containing about 40 ml of previously neutralized methanol. The sample was dissolved with stirring, and was titrated with Karl Fisher Reagent to the end point under vigorous stirring. Water content was calculated as: […]
The product is stable in 6 months accelerated conditions.
In one embodiment, 5(S)-CPT is isolated in crystalline form, which exists substantially free from water (i.e., essentially anhydrous). The term “substantially free from water” means the presence of less than about 1.0% water w/w and even specifically less than about 0.5% water w/w as measured by Karl Fisher analysis or TGA. […] The product is stable for 6 months under accelerated stability testing conditions of 40° C.±2° C./75% RH±5% RH and stable for 24 months under long term stability testing conditions at 30° C.±2° C./65%±5% RH.

pIC50: −log10 of the molar value. Where two headings read alike, the source gives them in different places.

`CC[C@@]1(O)C(=O)OCc2c1cc1n(c2=O)C(OCCO)c2cc3ccccc3nc2-1` (mixture of isomers) [5(RS)-CPT, 5(RS)-(2′-hydroxyethoxy)-20(S)-camptothecin, reference compound]: the pIC50 at Topoisomerase I is 4.90. The “% Tumor Growth Inhibition” value in series [1] (2 mg/kg) is reported as 60%. In addition, the Mortality in series [1] (2 mg/kg) and in series [1] (4 mg/kg) was 0/5 each time. In addition, the AUC in the series “in vivo [2]” is 5.08 µM·h; in the series “in vivo [3]”, 5.2 µM·h.

Turning to `CC[C@@]1(O)C(=O)OCc2c1cc1n(c2=O)[C@H](OCCO)c2cc3ccccc3nc2-1` [5(R)-CPT, 5(R)-(2′-hydroxyethoxy)-20(S)-camptothecin, reference compound], at Topoisomerase I, the pIC50 was 4.66. In series [4] (human, 14 days), the “GI90 for human bone marrow cells in vitro” value was 0.89 µM and the “Safety Margin (GI90/GI50)” value came to 0.06.

`CC[C@@]1(O)C(=O)OCc2c1cc1n(c2=O)[C@@H](OCCO)c2cc3ccccc3nc2-1` [5(S)-CPT, 5(S)-(2′-hydroxyethoxy)-20(S)-camptothecin] showed a pIC50 at Topoisomerase I of 5.97. In addition, the “fold more active than 5(R)-CPT in inhibiting topoisomerase I” value on Topoisomerase I (versus 5(R)-CPT) is recorded as “about 21 fold”. The “times more active than 5(RS)-CPT in inhibiting topoisomerase I” value on Topoisomerase I (versus 5(RS)-CPT) is recorded as “about 12 times”. For the same compound, the Mortality in series [1] (2 mg/kg) and in series [1] (4 mg/kg) was 0/5 throughout. For the same compound, the “GI90 for human bone marrow cells in vitro” value in series [4] (human, 14 days) turned out to be 0.69 µM. In addition, in series [4] (ratio of GI90 for human cell toxicity to GI50 for anticancer activity), the “Safety Margin (GI90/GI50)” value is recorded as 0.14. The values for the AUC in “in vivo [2]” and in the series “in vivo [3]” were 5.76 µM·h and 5.18 µM·h, respectively. For the same compound, the “fold more cytotoxic than 5(R)-CPT” value in series [5] is on record as more than 2.5 fold; in series [6], approximately 6 fold. Besides, the “change in water content (Karl Fisher analysis)” value in series [7] is given as “no appreciable change”; in series [7] (listed as crystalline 5(S)-CPT), “No change”. Moreover, the hygroscopicity entry in series [7] is given as “non-hygroscopic”.
